Where two headings read alike, the source gives them in different places.
Tests used:
[1] = Compression of amorphous solid, analysis by XRPD; format: physicochemical; details: force of 10^5N for approximately 24 hours
Description: Experimental: D-LSD amorphous oxalate (Lot: DC1134, ˜50 mg) was pressed with a force of 10^5N for approximately 24 hours. The solids were then removed from the press for analysis by XRPD.

[2] = Heat cycled maturation and solubility assessment (liquors analysed by HPLC versus a standard)
[3] = Accelerated storage at 40° C./75% RH for 14 days; format: physicochemical; details: for XRPD of Output / Nature of solid: 40° C./75% RH, 14 days, unsealed vials; for XRPD of Output: physical stability; for Nature of solid: visual observation for deliquescence; for change in form after stress: after stress at 40° C./75 RH
Description: Samples were visually observed for signs of deliquescence and analysed by XRPD post stressing for physical stability and HPLC for chemical stability.

CCN(CC)C(=O)[C@@H]1C=C2c3cccc4[nH]cc(c34)C[C@H]2N(C)C1.O=C(O)C(=O)O [Amorphous D-LSD oxalate, amorphous D-LSD oxalate salt]
form by XRPD after compression [1]: remained as an amorphous solid
solubility ([2]; EtOH, at 25° C., oxalate salt): > 200000 µg/mL
solubility ([2]; MeOH, at 25° C., oxalate salt): > 200000 µg/mL
Solubility 25° C. ([2]; solvent 1,4-dioxane, input amorphous D-LSD oxalate): 9200 µg/mL
Solubility 25° C. ([2]; solvent Chlorobenzene, input amorphous D-LSD oxalate): 2300 µg/mL
Solubility 25° C. ([2]; solvent EtOAc, input amorphous D-LSD oxalate): 3420 µg/mL
Solubility 25° C. ([2]; solvent IP AC, input amorphous D-LSD oxalate): 4630 µg/mL
Solubility 25° C. ([2]; solvent MEK, input amorphous D-LSD oxalate): 2610 µg/mL
Solubility 25° C. ([2]; solvent MIBK, input amorphous D-LSD oxalate): 1600 µg/mL
Solubility 25° C. ([2]; solvent MeCN, input amorphous D-LSD oxalate): 5490 µg/mL
Solubility 25° C. ([2]; solvent Me—THF, input amorphous D-LSD oxalate): 6140 µg/mL
Solubility 25° C. ([2]; solvent THF:water (95:5), input amorphous D-LSD oxalate): 8670 µg/mL
Solubility 25° C. ([2]; solvent nitromethane, input amorphous D-LSD oxalate): 6490 µg/mL

CCN(CC)C(=O)[C@@H]1C=C2c3cccc4[nH]cc(c34)C[C@H]2N(C)C1.O=C(O)C(O)C(O)C(=O)O [D-LSD D-tartrate Pattern A, D-LSD D-tartaric acid salt]
reversibility of water uptake as relative humidity decreases (DVS profile, only minor hysteresis): reversible
weight lost during the initial desorption cycle ([…]): 0.6 wt %
water absorbed during the subsequent sorption cycle (at 90% RH): 1%
water absorbed during the subsequent sorption cycle (up to 80% RH): 0.65%

CCN(CC)C(=O)[C@@H]1C=C2c3cccc4[nH]cc(c34)C[C@H]2N(C)C1.O=S(=O)(O)O [D-LSD Sulfate Amorphous Salt, D-LSD sulfate amorphous salt]
solubility ([2]; EtOH, at 25° C., sulfate salt): > 100000 µg/mL
solubility ([2]; IPA/water (95:5), at 40° C., sulfate salt): > 100000 µg/mL
solubility ([2]; MeOH, at 25° C., sulfate salt): > 200000 µg/mL
solubility ([2]; iPrOAc/water (98:2), at 40° C., sulfate salt): > 100000 µg/mL

Br.CCN(CC)C(=O)[C@@H]1C=C2c3cccc4[nH]cc(c34)C[C@H]2N(C)C1 [D-LSD amorphous HBr, D-LSD hydrobromide amorphous salt]
solubility ([2]; 1,4-dioxane, at 40° C., HBr salt): > 100000 µg/mL
solubility ([2]; EtOH, at 25° C., HBr salt): > 100000 µg/mL
solubility ([2]; IPA/water (95:5 v/v), at 40° C., HBr salt): > 100000 µg/mL
solubility ([2]; MEK, at 25° C., HBr salt): > 100000 µg/mL
solubility ([2]; MeOH, at 25° C., HBr salt): > 200000 µg/mL
solubility ([2]; THF/water (95:5 v/v), at 25° C., HBr salt): > 200000 µg/mL
solubility ([2]; iPrOAc/water (98:2 v/v), at 40° C., HBr salt): > 100000 µg/mL
solubility ([2]; nitromethane, at 25° C., HBr salt): > 100000 µg/mL
Solubility 25° C. ([2]; solvent EtOAc, input D-LSD amorphous HBr): 2630 µg/mL
Solubility 25° C. ([2]; solvent IPAC*, input D-LSD amorphous HBr): 4190 µg/mL
Solubility 25° C. ([2]; solvent MIBK, input D-LSD amorphous HBr): 16400 µg/mL
Solubility 25° C. ([2]; solvent MeCN, input D-LSD amorphous HBr): 8680 µg/mL
Solubility 25° C. ([2]; solvent TBME*, input D-LSD amorphous HBr): 9840 µg/mL
Solubility 25° C. ([2]; solvent chlorobenzene, input D-LSD amorphous HBr): 3120 µg/mL
Solubility 25° C. ([2]; solvent heptane, input D-LSD amorphous HBr): 50 µg/mL
Solubility 25° C. ([2]; solvent toluene, input D-LSD amorphous HBr): 3910 µg/mL
Solubility 25° C. ([2]; solvent water, input D-LSD amorphous HBr): 25100 µg/mL

CCN(CC)C(=O)C1C=C2c3cccc4[nH]cc(c34)CC2N(C)C1.O=C(O)C(=O)O [D-LSD oxalate Pattern B]
XRPD of Output [3]: oxalate Pattern B
Nature of solid [3]: solid
change in form after stress [3]: did not show a change in form

CCN(CC)C(=O)[C@@H]1C=C2c3cccc4[nH]cc(c34)C[C@H]2N(C)C1.O=P(O)(O)O [D-LSD phosphate Pattern C, D-LSD phosphoric acid salt Pattern C]
XRPD of Output [3]: phosphate Pattern C
Nature of solid [3]: solid
change in form after stress [3]: did not show a change in form

Source: patent US12534460B2, “LSD salt crystal forms” (Mind Medicine, Inc., priority 2021, dated 2026)
